This is an account of results in paper PMC3094704, “S-Petasin, the Main Sesquiterpene of Petasites formosanus, Inhibits Phosphodiesterase Activity and Suppresses Ovalbumin-Induced Airway Hyperresponsiveness” (Evidence-based Complementary and Alternative Medicine : eCAM, 2011).

The target of assay [1] is T1, PDE2 (Cavia porcellus, UniProt A0A286XUV5).
T1 sequence (A0A286XUV5 22-936): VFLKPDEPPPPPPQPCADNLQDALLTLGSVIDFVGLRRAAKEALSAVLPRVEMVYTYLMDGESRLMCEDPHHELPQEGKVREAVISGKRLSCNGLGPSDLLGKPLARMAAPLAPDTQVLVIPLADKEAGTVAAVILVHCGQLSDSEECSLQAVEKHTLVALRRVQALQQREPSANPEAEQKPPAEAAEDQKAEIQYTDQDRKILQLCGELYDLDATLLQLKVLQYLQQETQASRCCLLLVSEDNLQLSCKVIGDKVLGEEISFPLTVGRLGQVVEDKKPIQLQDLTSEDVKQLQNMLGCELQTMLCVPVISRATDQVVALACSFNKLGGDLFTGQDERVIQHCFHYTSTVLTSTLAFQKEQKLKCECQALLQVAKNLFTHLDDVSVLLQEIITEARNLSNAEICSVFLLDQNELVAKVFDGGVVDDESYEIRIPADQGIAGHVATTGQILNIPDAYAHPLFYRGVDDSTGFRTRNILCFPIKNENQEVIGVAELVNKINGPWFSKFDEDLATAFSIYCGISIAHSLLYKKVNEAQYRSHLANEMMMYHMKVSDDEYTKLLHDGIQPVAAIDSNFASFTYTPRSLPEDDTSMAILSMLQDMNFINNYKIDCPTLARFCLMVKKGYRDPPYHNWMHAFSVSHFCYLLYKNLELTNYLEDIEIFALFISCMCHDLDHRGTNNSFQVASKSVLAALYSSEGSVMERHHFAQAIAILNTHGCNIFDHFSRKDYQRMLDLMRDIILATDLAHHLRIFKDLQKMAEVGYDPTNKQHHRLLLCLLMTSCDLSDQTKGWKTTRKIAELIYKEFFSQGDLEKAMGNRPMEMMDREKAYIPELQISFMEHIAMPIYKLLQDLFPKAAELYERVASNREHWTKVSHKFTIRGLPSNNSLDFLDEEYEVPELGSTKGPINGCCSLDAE
The assay can be described thus: Inhibition of PDE2 activity (two-step radioenzymatic assay). Type of assay: biochemical, guinea pig. The following applies: mean ± SEM (n); read-out: IC50 on PDE isozyme 2. The protocol:
Activities of PDE1–5, partially separated from guinea pig lungs and hearts according to the method described by Ko et al., were measured with a two-step procedure according to the method of Thompson and Appleman, using cAMP with [^3H]-cAMP or cGMP with [^3H]-cGMP as substrates. The enzyme pμreparation (25 μL) was incubated for 30 min at 37°C in a total assay volume of […] containing 50 mM Tris-HCl (pH 7.4), 3 mM MgCl2, 1 mM dithiothreitol, 0.05% BSA, 1 μM cAMP with 0.2 μCi [^3H]-cAMP as a substrate alone or in the presence of 0.1 units calmodulin with 10 μM CaCl2 or 5 μM cGMP, and 1 μM cGMP with 0.2 μCi [^3H]-cGMP as another substrate alone or in the presence of 0.1 units calmodulin with 10 μM CaCl2. […] The reagents and homogenate were mixed on ice, and the reaction was initiated by transferring the mixture to a water bath at 37°C. Following a 30-min incubation, the reaction was stopped by transferring the reaction vessel to a bath of boiling water for 3 min. After cooling on ice, 20 μL of a 1 mg/mL solution of C. atrox snake venom was added to the reaction mixture, and the mixture was incubated at 37°C for 10 min. Unreacted [^3H]-cAMP or [^3H]-cGMP was removed by the addition of 500 μL of a 1-in-1 Tris-HCl (40 mM) buffer suspension of Dowex resin (1 × 8-200) with incubation on ice for 30 min. […]

In assay [2] the test system is high-affinity rolipram binding sites (HARBSs) of guinea pig brain cell membranes. The assay can be described thus: Displacement of [3H]-rolipram (PDE4H determination). Here is the method: When the above-described guinea pigs were sacrificed, the whole brains were removed and homogenized with a glass/Teflon homogenizer (Glas-Col, Terre Haute, IN, USA) in 10 volumes of cold medium (pH 6.5) containing 20 mM Bis-Tris, 2 mM benzamidine, 2 mM EDTA, 50 mM sodium chloride, 0.1 mM PMSF and 1 mM dithiothreitol. At 4°C, the homogenate was centrifuged at 170 g for 5 min to remove connective tissues and blood vessels. The suspended homogenate was then re-centrifuged at 40 000 g for 30 min to separate the cytosolic and particulate portions. The particulate portion was re-suspended in a suspension at a concentration of 400 mg/mL (wet weight/volume), after washing three times with homogenizing buffer. The particulate portion mainly consisted of cell membranes. The binding ability of S-petasin (3–300 μM) or Ro 20-1724 (1–10,000 nM), a reference drug, to high-affinity rolipram binding sites (HARBSs) of the membranes was determined by replacing 2 nM [^3H]-rolipram in a reaction buffer at 30°C for 1 h, according to the method described by previous investigators and modified by us. Briefly, the reaction buffer consisted of 50 mM Tris-HCl and 5 mM MgCl2 (pH 7.5). The total volume of the reaction mixture was 25 μL, consisting of 10 μL of particulate suspension, 10 μL of [^3H]-rolipram and 5 μL of S-petasin or Ro 20-1724. After 1 h, the reaction was terminated by moving the reaction vessel into crushed ice. Then the reaction mixture was transferred onto Whatman GF/B glass-fiber filters, which were soaked in a 0.3% polyethyleneimine solution in a mini-funnel. The reaction mixture was filtered by centrifuging at 90 g for 10 s, and the filtrate was collected into a 1.5 mL Eppendorf tube with a top adapted to the outlet of the mini-funnel. The filters were washed with 300 μL of reaction buffer three times each in the same way, and transferred into 2 mL of cocktail for radiation counting (total binding) using a β-scintillation counter (Beckman, Fullerton, CA, USA). Non-specific binding, which was defined in the presence of 10 μM Ro 20-1724, was subtracted from the total binding to yield the specific binding. The effective concentration (EC50) values of S-petasin and Ro 20-1724, at which a half of [^3H]-rolipram bound onto HARBSs of cell membranes was displaced, were defined as the PDE4H values, and these were related to any adverse effects, such as nausea, vomiting and gastric hypersecretion.

For assay [3], the system named is isolated sensitized guinea pig trachea. The experiment in a line: OVA-induced tracheal contractions and baseline tension in vitro. The protocol: Male Hartley guinea pigs (500–600 g) were sensitized by intramuscular injections of 0.7 mL of 5% (w/v) OVA in saline on Days 1, 4 and 43, and in adjuvant on Days 25 and 39 into each thigh, according to a method described by Underwood et al. and modified by us. Three days after the last injection, sensitized guinea pigs were sacrificed by cervical dislocation, and their tracheas removed. Each trachea was cut into six segments. Each segment consisted of three cartilage rings. All segments were cut open opposite the trachealis. […] Tissues were suspended in normal Krebs solution under an initial tension of 1.5 g and allowed to equilibrate for at least 1 h with washing at 15-min intervals. After the tissues were precontracted with KCl (60 mM) and washed with normal Krebs solution, OVA (0.1–100 μg/mL) was cumulatively added, and contractions were allowed to reach a steady state at each concentration. […] Therefore, the log concentration-response curves of OVA were constructed in the absence and presence of S-petasin. The tension of the precontraction induced by KCl was set as 100%.

The target in assay [4] is PDE4. The assay can be described thus: Inhibition of PDE4 activity and Lineweaver-Burk analysis. Type of assay: biochemical, guinea pig. Here is the method:
Activities of PDE1–5, partially separated from guinea pig lungs and hearts according to the method described by Ko et al., were measured with a two-step procedure according to the method of Thompson and Appleman, using cAMP with [^3H]-cAMP or cGMP with [^3H]-cGMP as substrates. The enzyme pμreparation (25 μL) was incubated for 30 min at 37°C in a total assay volume of […] containing 50 mM Tris-HCl (pH 7.4), 3 mM MgCl2, 1 mM dithiothreitol, 0.05% BSA, 1 μM cAMP with 0.2 μCi [^3H]-cAMP as a substrate alone or in the presence of 0.1 units calmodulin with 10 μM CaCl2 or 5 μM cGMP, and 1 μM cGMP with 0.2 μCi [^3H]-cGMP as another substrate alone or in the presence of 0.1 units calmodulin with 10 μM CaCl2. In tests of enzyme inhibition, the reaction mixture contained 10 μL of vehicle or inhibitors, at various concentrations of S-petasin or selective PDE1–5 inhibitors, such as vinpocetin [22], EHNA [23], milrinone, Ro 20-1724 [25] and zaprinast, as reference drugs. The reagents and homogenate were mixed on ice, and the reaction was initiated by transferring the mixture to a water bath at 37°C. Following a 30-min incubation, the reaction was stopped by transferring the reaction vessel to a bath of boiling water for 3 min. After cooling on ice, 20 μL of a 1 mg/mL solution of C. atrox snake venom was added to the reaction mixture, and the mixture was incubated at 37°C for 10 min. Unreacted [^3H]-cAMP or [^3H]-cGMP was removed by the addition of 500 μL of a 1-in-1 Tris-HCl (40 mM) buffer suspension of Dowex resin (1 × 8-200) with incubation on ice for 30 min. Each tube was then centrifuged for 2 min at 3700 g, and 150 μL of the supernatant was removed for liquid scintillation counting. Less than 10% of the tritiated cyclic nucleotide was hydrolyzed in this assay. The total protein in each fraction used was assayed according to the method described by Bradford. The PDE activities are shown as nmol/mg/min in the Lineweaver-Burk analysis.

In assay [5] the target is PDE3. The experiment in a line: Inhibition of PDE3 activity and Lineweaver-Burk analysis. The assay is classed as biochemical, guinea pig. The protocol: Activities of PDE1–5, partially separated from guinea pig lungs and hearts according to the method described by Ko et al., were measured with a two-step procedure according to the method of Thompson and Appleman, using cAMP with [^3H]-cAMP or cGMP with [^3H]-cGMP as substrates. The enzyme pμreparation (25 μL) was incubated for 30 min at 37°C in a total assay volume of […] containing 50 mM Tris-HCl (pH 7.4), 3 mM MgCl2, 1 mM dithiothreitol, 0.05% BSA, 1 μM cAMP with 0.2 μCi [^3H]-cAMP as a substrate alone or in the presence of 0.1 units calmodulin with 10 μM CaCl2 or 5 μM cGMP, and 1 μM cGMP with 0.2 μCi [^3H]-cGMP as another substrate alone or in the presence of 0.1 units calmodulin with 10 μM CaCl2. […] The reagents and homogenate were mixed on ice, and the reaction was initiated by transferring the mixture to a water bath at 37°C. Following a 30-min incubation, the reaction was stopped by transferring the reaction vessel to a bath of boiling water for 3 min. After cooling on ice, 20 μL of a 1 mg/mL solution of C. atrox snake venom was added to the reaction mixture, and the mixture was incubated at 37°C for 10 min. Unreacted [^3H]-cAMP or [^3H]-cGMP was removed by the addition of 500 μL of a 1-in-1 Tris-HCl (40 mM) buffer suspension of Dowex resin (1 × 8-200) with incubation on ice for 30 min. Each tube was then centrifuged for 2 min at 3700 g, and 150 μL of the supernatant was removed for liquid scintillation counting. […] The total protein in each fraction used was assayed according to the method described by Bradford. The PDE activities are shown as nmol/mg/min in the Lineweaver-Burk analysis.

SMILES strings stand for the structures. Counter-ions that a name gives are not always drawn.

With `CCCCCC[C@@H]([C@@H](C)O)n1cnc2c(N)ncnc21` (racemic) [EHNA, erythro-9-(2-hydroxy-3-nonyl)-adenine HCl], the IC50 in assay [1] is 6500 ± 1000 nM.

In the case of `CCCCOc1cc(CC2CNC(=O)N2)ccc1OC` (stereo not drawn) [Ro 20-1724, 4-(3-butoxy-4-methoxybenzyl)-2-imidazolidinone, reference compound], it took 95.8 ± 13.6 nM to reach a half-maximal effect in assay [2] (HARBSs of guinea pig brain cell membranes) (EC50). The “percentage displacement of [3H]-rolipram binding” value in assay [2] (at the highest concentration (10 000 nM), 2 nM [3H]-rolipram) is 100%±2.1%. Further, the “OVA (10 μg/mL)-induced contractions” value in assay [3] (30 μM) is reported as “significantly inhibited”. Besides, the Baseline tension entry in assay [3] (3–30 μM) is “concentration-dependently and significantly relaxed”. Further, the “OVA (10–100 μg/mL)-induced contractions” value in assay [3] (10–30 μM) is recorded as “concentration-dependently inhibited”. In addition, in assay [4] (Lineweaver-Burk analysis, cAMP substrate, read-out: Ki on PDE isozyme 4), the inhibition constant (Ki) came to 4200 ± 700 nM. Moreover, the “Mode of inhibition of PDE4 activity” value in assay [4] (Lineweaver-Burk analysis, S-petasin 3–30 μM, Ro 20-1724 1–10 μM) was “competitively inhibited”. For the same compound, in assay [4] (mean ± SEM (n), read-out: IC50 on PDE isozyme 4 (taken as PDE4L value)), the IC50 worked out at 6900 ± 600 nM.

In the case of `Cc1[nH]c(=O)c(C#N)cc1-c1ccncc1` [milrinone, reference compound], in assay [5] (Lineweaver-Burk analysis, cAMP substrate, read-out: Ki on PDE isozyme 3), the inhibition constant Ki is 1600 ± 200 nM. Also, in assay [5] (Lineweaver-Burk analysis, S-petasin 3–30 μM, milrinone 0.3–3 μM), the “Mode of inhibition of PDE3 activity” value was “competitively inhibited”. For the same compound, the half-maximal inhibitory concentration (IC50) in assay [5] (mean ± SEM (n), read-out: IC50 on PDE isozyme 3) was determined as 1500 ± 200 nM.
